Laboratory results from patent publication US3952050A, “Cyclopent [a] indene compounds” (Allen & Hanburys Limited, priority 1972, dated 1976).
Where a name gives a salt, the structure may show the parent alone.

Assays:
Format in all cases: in vivo
[1] = Phenylquinone Writhing test (analgetic action); conditions: po
Text: (§1) Particularly preferred meanings for the groups R1 and R2 are hydrogen C1-4 alkyl, in particular methyl, or benzyl. Particularly preferred meanings for R3 are hydrogen or C1-4alkyl in particular methyl. Particularly preferred meanings for R5 and R6 are hydrogen, C1-4 alkyl substituted by C1-4 alkylamino or by C1-4 dialkylamino or by phenyl or by 4-fluorobenzoyl or in which the groups together with the adjacent nitrogen atom form a morpholino or piperidino moiety; another preferred group for R5 or R6 is carbamoyl (--CONH2). Specific preferred compounds and salts are those the preparation of which is described in the Examples. The compounds of the invention have marked analgetic activity and are devoid of respiratory depressant action. […] These characteristics are often associated with non-narcotic analgetics in man. For example, in Table I, the compound 1,2,3,3aα,8,8aα-hexahydro-N-methylcyclopent[a]inden-1α-amine, maleate (AH 9197) and the diastero-isomer 1,2,3,3aα,-8,8aα-hexahydro-N-methylcyclopent[a]inden-1β-amine maleate (AH 8538) are compared with codeine in standard pharmacological tests for evaluating analgetic action. The N-ethyl analogue of AH 9197 (N-ethyl-1,2,3,3aα,8,8aα-hexahydrocyclopent[a]inden-1α-amine) maleate (AH 9903) is also included.

Dog Tooth-pulp = Dog Tooth-pulp Stimulation test (analgetic action); conditions: Canis lupus familiaris, po, read-out: Minimum effective dose, Dog Tooth-pulp Stimulation
Text: as §1

[2] = Hot plate test (analgetic action)
Text: as §1

Compound | ED50 [1] | minimal effective dose (Dog Tooth-pulp) | ED50 ([2]; po) | ED50 ([2]; sc)
COc1ccc2c3c1O[C@H]1[C@@H](O)C=C[C@H]4[C@@H](C2)N(C)CC[C@@]341 [Codeine, codeine, reference compound] | 5.8 mg/kg | 3.3 mg/kg | 15.5 mg/kg | 11.8 mg/kg
CCN[C@H]1CC[C@@H]2c3ccccc3C[C@H]12 (relative stereo) [Ex. 2, N-Ethyl-1,2,3,3aα,8,8aα-hexahydrocyclopent[a]inden-1α-amine, maleate] | 4.6 mg/kg | < 5 mg/kg | 9.5 mg/kg | 2.2 mg/kg
CN[C@H]1CC[C@@H]2c3ccccc3C[C@H]12 (relative stereo) [Ex. 1, 1,2,3,3aα,8,8aα-Hexahydro-N-methylcyclopent[a]inden-1α-amine, maleate] | 7.4 mg/kg | 3.7 mg/kg | 10 mg/kg | 0.44 mg/kg
CN[C@@H]1CC[C@@H]2c3ccccc3C[C@@H]21 (relative stereo) [Ex. 3, 1,2,3,3aα,8,8aα -Hexahydro-N-methylcyclopent[a]inden-1β-amine, maleate] | 11.9 mg/kg | 5 mg/kg | – | 15 mg/kg
